# Tested on: endothelin-1
# Experiment: Endothelin-1 concentration in blood (ELISA) before and after a 75-g OGTT during 12-week daily jelly ingestion
# Format: in vivo, human
# Conditions: for endothelin-1 concentration at 60 minutes and 120 minutes after the 75-g OGTT compared to before the 75-g OGTT: healthy middle to elderly persons
# Experimental: Subjects were 54 healthy middle to elderly persons (30 males and 24 females). All subjects were assigned to one of the groups, i.e., an isomaltulose ingestion group (Group I) and a sucrose ingestion group (Group S), in a single blind test before intervention, and the intervention was performed for 12 weeks each.
# All subjects ingested jellies having compositions described in Table 1 once a day for 12 weeks continuously. Group I received a jelly containing isomaltulose (Example 1), and group S received a jelly containing sucrose (Comparative Example 1). The jelly was taken every morning before breakfast, and all subjects were instructed not to change their dietary habits during the intervention period from those before the intervention. A 75 g oral glucose tolerance test (75-g OGTT, described in detail below) was performed before the 12-week intervention and at 4 weeks, 8 weeks, and 12 weeks after the start of the intervention, after the lapse of 1 day or more from the ingestion of the jelly and the secretion amount of endothelin-1 was evaluated by the method described below before the 75-g OGTT and at 60 minutes and 120 minutes after the 75-g OGTT.
# The 75-g OGTT was performed under the instruction of a doctor using TRELAN- G 75 g (Yoshindo Inc.), which is generally used in medical institutions and research, and the test solution was orally ingested in a general volume (225 mL per dose) within 5 minutes according to the guidelines of the Japan Diabetes Society (Araki E, Goto A, Kondo T, Noda M, Noto H, Origasa H, et al. Japanese Clinical Practice Guideline for Diabetes 2019. J Diabetes Investig 2020; 11: 1020-1076.).
# For all subjects, blood was collected from the cubital vein in a fasting state for 12 hours or more in a hygienic environment. Before ingestion of a carbohydrate solution for the 75-g OGTT and at 60 minutes and 120 minutes after the ingestion, a nurse collected blood (15 to 20 mL per collection) using a sterilized disposable blood collection needle under the instruction of a doctor. A sample after blood collection was immediately centrifuged at 4°C and 3000 rpm for 15 minutes, and the concentration of endothelin-1 was measured by ELISA (enzyme-linked immunosorbent assay) using a test kit (Cayman Chemical, Ann Arbor) for measuring the concentration of endothelin-1.
# A change in endothelin-1 concentration before and after the start of the intervention of each group was shown as the average value (95% confidence interval). For the comparison of the change in endothelin-1 concentration between the 2 groups before and after the 75-g OGTT, a two-way repeated measures ANOVA was used. The Bonferroni method was performed for comparison of changes in each intervention in post-hoc test. The total area under the curve at 90 minutes (endothelin-1 concentration AUC) was calculated using the trapezoidal rule. For statistical analysis, IBM SPSS Statistics Ver. 25 (manufactured by IBM Corporation) was used. The statistical significance level in this test was set at 5%.
# [1] = jelly with 25 g once a day, oral, at 4, 8, and 12 weeks after the start of the intervention
Compound,"secretion of endothelin-1 (overall conclusion) (after 75-g OGTT at 4, 8, and 12 weeks after the start of the intervention, Group I versus Group S)",endothelin-1 concentration at 60 minutes and 120 minutes after the 75-g OGTT compared to before the 75-g OGTT [1],"endothelin-1 concentration before the 75-g OGTT and at 60 minutes and 120 minutes after the 75-g OGTT, Group I versus Group S (jelly with 25 g once a day, oral, at 4, 8, and 12 weeks after the start of the intervention, p < 0.01)","endothelin-1 concentration AUC, Group I versus Group S (jelly with 25 g once a day, oral, at 4, 8, and 12 weeks after the start of the intervention, trapezoidal rule, p < 0.01)"
6-O-α-D-glucopyranosyl-D-fructose [isomaltulose],inhibited the secretion of endothelin-1,no significant change,significantly lower value,significantly lower value
"OC[C@H]1O[C@@](CO)(O[C@H]2O[C@H](CO)[C@@H](O)[C@H](O)[C@H]2O)[C@@H](O)[C@@H]1O [sucrose, reference compound]",–,significantly increased,–,–

# Source: patent EP4620312A1, “ENDOTHELIN-1 SECRETION INHIBITOR” (Mitsui DM Sugar Co., Ltd., priority 2022, dated 2024)
